This assay deals with IFNγ induced CXCL10 and CXCL9 secretion in EpiAirway tissue cultures. Description: Inhibition of IFNγ induced chemokines CXCL9 and CXCL10 in human 3D airway cultures. Format: cell-based. As to conditions: 192 h, day 8, ±STDV. The protocol:
Assay 7: Inhibition of IFNγ and IL-27 Induced Chemokines CXCL9 and CXCL10 in Human 3D Airway Cultures
EpiAirway tissue cultures were obtained from Mattek (AIR-100). Cultures were derived from asthmatic donors. In a cell culture insert, human derived tracheal/bronchial epithelial cells were grown and differentiated on a porous membrane support, allowing an air-liquid interface with warmed culture medium below the cells and a gaseous test atmosphere above. Tissues were cultured in maintenance media (Mattek, AIR-100-MM) in a 37° C., 5% CO2 humidified incubator. Four donors were tested. On Day 0, tissue cultures were treated with test compounds at 10 μM, 1 μM and/or 0.1 μM. Compounds were diluted in dimethyl sulfoxide (DMSO, Sigma) to a final concentration of 0.1%. DMSO at 0.1% was used as a vehicle control. Test compounds were incubated with cultures for 1 hour at 37° C., 5% CO2, followed by the addition of pre-warmed media containing IFNγ (R&D Systems) or IL-27 (R&D Systems) at a final concentration at 100 ng/ml. Tissue cultures were maintained for 8 days. Media was replaced every 2 days with fresh media containing compounds and IFNγ or IL-27. […] Data is expressed as % Inhibition+/−standard deviation (±STDV). Percent inhibition was determined by compound inhibitory potency against IFNγ or IL-27 induced CXCL10 or CXCL9 secretion compared to vehicle treated cells. […]

One may read the inhibition as how much of the control response was suppressed. Read a low inhibition as a weak effect. `CCc1cc(O)c(F)cc1-c1ccc2c(-c3nc4c([nH]3)CN(C(C)C)[C@H](C(=O)N3CC(N(C)C)C3)C4)n[nH]c2c1` [Example 2, (S)-(3-(dimethylamino)azetidin-1-yl)(2-(6-(2-ethyl-5-fluoro-4-hydroxyphenyl)-1H-indazol-3-yl)-5-isopropyl-4,5,6,7-tetrahydro-3H-imidazo[4,5-c]pyridin-6-yl)methanone]: the inhibition at 1 µM was 65%.

For the origin of these results see patent publication US10550118B2, “JAK inhibitors containing a 4-membered heterocyclic amide” (THERAVANCE BIOPHARMA R&D IP, LLC, priority 2017, dated 2020).
